Data: publication PMC4010497, “Synthesis and Evaluation of Fluorine-Substituted Phenyl Acetate Derivatives as Ultra-Short Recovery Sedative/Hypnotic Agents” (PLoS ONE, 2014)
Like-named read-outs stand apart in the source and are kept apart here.

Legend:
mice [1] = assay: animal or person; assay type: in vivo; conditions: for ED50: Mus musculus
Method: (§1) All tests were performed during the light period. Groups of mice, rats and rabbits were injected intravenously (lateral tail vein) over 10 s with each dose of test compound, placed in separate boxes to reduce external stimuli and assessed for the loss of righting reflex. Dosing was performed using mg/kg scheme. A set of dose levels was chosen, and depending on whether the loss of righting reflex was observed, extra doses were introduced to provide data for the loss of righting reflex over a narrow dose range to allow potency calculations. From the percentage of mice, rats and rabbits in each group showing loss of righting reflex for ≥30 s, a probit analysis (SAS Institute) was performed to obtain an HD50 for each compound with 95% confidence limits.
(§2) Immediately following the injection, the mice, rats and rabbits were tested for loss of righting reflex. […] Once a loss was observed, the interval between the loss of righting reflex and the return to righting reflex was recorded. The anesthetized animals recovered righting reflexes spontaneously. To compare the duration of LORR of each compound at equipotent doses, groups of mice, rats and rabbits were injected with each compound at 2× HD50 over 10 s.
(§3) Time to walk was the time required after righting before mice and rabbits walked from the center to the periphery of a 30-cm diameter dise.
(§4) The rotarod test was conducted to evaluate the recovery to the motor coordination. Before the LORR test, mice were trained for 2 consecutive days. Trained mice could maintain their balance on rod for more than 2 mins. After the mice could walk from the center to the periphery of a 30-cm diameter dise, they were put on the rotarod. Mice were classified as behavioral recovery when, on being placed on the rod, they could maintain their balance for 20 s. The time to behavioral recovery was the time required after mice walked from the centre to the periphery of a 30-cm diameter disc before they could maintain their balance on rod for 20 s.

in vivo = conditions: mouse, in vivo; mice, 95% confidence limits
Method: (§5) The LD50 was determined in mice, rats, and rabbits and the TI was calculated as LD50/HD50.

mice [2] = assay: in vivo; conditions: LD50/HD50
Method: as §5

rat [3] = assay type: in vivo; conditions: for HD50: IV, 95% confidence limits
Method: as §1, §2, §3, §4

rat [4] = assay: Therapeutic index (LD50/HD50) in rat; assay type: in vivo
Method: as §5

rabbits [5] = assay: Hypnotic potency and recovery after IV bolus in rabbits; assay type: in vivo, rabbit; conditions: for Duration of LORR / Time to walk: 2× HD50 dose, mean ± SD; for HD50: IV, 95% confidence limits
Method: All tests were performed during the light period. Groups of mice, rats and rabbits were injected intravenously (lateral tail vein) over 10 s with each dose of test compound, placed in separate boxes to reduce external stimuli and assessed for the loss of righting reflex. Dosing was performed using mg/kg scheme. A set of dose levels was chosen, and depending on whether the loss of righting reflex was observed, extra doses were introduced to provide data for the loss of righting reflex over a narrow dose range to allow potency calculations.
Immediately following the injection, the mice, rats and rabbits were tested for loss of righting reflex. […] Once a loss was observed, the interval between the loss of righting reflex and the return to righting reflex was recorded. […] To compare the duration of LORR of each compound at equipotent doses, groups of mice, rats and rabbits were injected with each compound at 2× HD50 over 10 s.
as §3

rabbits [6] = assay: Therapeutic index (LD50/HD50) in rabbits; assay type: in vivo, rabbit
Method: as §5

rabbits [7] = assay: Hypnosis in response to IV infusion in rabbits; assay type: in vivo, rabbit; conditions: for time to walk after infusion: 20-min IV infusion; for duration of LORR after cessation of infusion: 20-min IV infusion at half the HD50 per min after 2× HD50 induction
Method: Induction of hypnosis in rabbits was achieved using 2× HD50 dose of test compound, and immediately after induction, infusion via the tail vein was commenced at half the HD50 dosage per min. the infusion rate was maintained for 20 min or 1 h or 3 h later. The depth of hypnosis was monitored by the magnitude of a withdrawal reflex to intermittent paw pinch provided by a pair of forceps.

GABAA receptor = assay: GABAA radioligand binding assay ([3H]EBOB); conditions: 50 µM compound, 0.5 nM [3H]EBOB, rat frontoparietal cortex
Method: All the new compounds were dissolved in 5% DMSO.
Specific binding was determined in the presence of compounds.
Membrane suspensions were thawed and centrifuged in incubation buffer at 10,000×g for 10 min and washed by a similar centrifugation. For displacement studies, membrane suspensions (5 mg original wet wt./ml) were incubated with 0.5 nM [^3H]EBOB ([…], Perkin Elmer Life Sciences, Boston, MA, USA) in the absence or presence of 50 µM of new compounds or reference drug for 2 h at 25°C. Nonspecific binding was determined in the presence of 10 µM Bicuculline. Bicuculline and picrotoxin were frequently used to determine the nonspecific binding when [3H]EBOB as radioligand [17]. Triplicate 1 ml samples were filtered on Whatman GF/B filters under vacuum with a Brandel Harvester and washed with 3×3 ml ice-cold buffer.

[8] = In vitro metabolic half-life in rat whole blood; assay type: in vitro ADME; conditions: male, Sprague-Dawley Rat (n = 3), 37°C, read-out: Mean t1/2 Value
Method: (§6) Human whole blood stability experiments were conducted in whole blood from four human donors (male, 18–25 years). Single experiments were conducted with pooled blood from Sprague-Dawley rats (male, 8 weeks, n = 3), New Zealand White rabbits (male, 8–10 weeks, n = 3), Beagle dogs (male, 2–3 years, n = 3) and Cynomolgus monkeys (male, 3–4 years, n = 3). All the blood samples were provided by Xuzhou Medical College. A 1.35-ml aliquot of blood was warmed at 37°C for 5 min and hypnotic (from a 40 mM stock in DMSO solution) was added to a final concentration of 200 µM. After the specified incubation time, a 150-µl sample was removed and the metabolic reaction was quenched using 150-µl acetonitrile. Zero time-point samples were prepared by adding 150-µl acetonitrile (using a 4 mM stock in DMSO) to 150-µl blood before addition of the hypnotic. The quenched samples were centrifuged, and the supernatant was separated and stored at −20°C until analyzed. Hypnotic concentrations in thawed samples were determined by high-performance liquid chromatography using a 3-µm phenyl 4.6×50-mm C-A-25, ACE column with the UV detector set at 240 nm. […] The lower limit of quantitation of this assay is 3 µM and the accuracy within 15% at 10 µM. The metabolic half-lives were quantified from the incubation time-dependent change in drug concentration.

[9] = In vitro metabolic half-life in rabbit whole blood; assay type: in vitro ADME; conditions: male, New Zealand White rabbit (n = 3), 37°C, read-out: Mean t1/2 Value
Method: as §6

[10] = In vitro metabolic half-life in dog whole blood; assay type: in vitro ADME, Beagle dog; conditions: male; whole blood, Beagle dog (n = 3), 37°C, 200 µM; read-out: Mean t1/2 Value
Method: Human whole blood stability experiments were conducted in whole blood from four human donors (male, 18–25 years). Single experiments were conducted with pooled blood from Sprague-Dawley rats (male, 8 weeks, n = 3), New Zealand White rabbits (male, 8–10 weeks, n = 3), Beagle dogs (male, 2–3 years, n = 3) and Cynomolgus monkeys (male, 3–4 years, n = 3). All the blood samples were provided by Xuzhou Medical College. A 1.35-ml aliquot of blood was warmed at 37°C for 5 min and hypnotic (from a 40 mM stock in DMSO solution) was added to a final concentration of 200 µM. After the specified incubation time, a 150-µl sample was removed and the metabolic reaction was quenched using 150-µl acetonitrile. Zero time-point samples were prepared by adding 150-µl acetonitrile (using a 4 mM stock in DMSO) to 150-µl blood before addition of the hypnotic. The quenched samples were centrifuged, and the supernatant was separated and stored at −20°C until analyzed. Hypnotic concentrations in thawed samples were determined by high-performance liquid chromatography using a 3-µm phenyl 4.6×50-mm C-A-25, ACE column with the UV detector set at 240 nm. A linear gradient 20–45% acetonitrile in water with 0.05% trifluoroacetic acid was run for more than 20 min at a flow rate of 1 ml/min. The lower limit of quantitation of this assay is 3 µM and the accuracy within 15% at 10 µM. The metabolic half-lives were quantified from the incubation time-dependent change in drug concentration.

[11] = In vitro metabolic half-life in monkey whole blood; assay type: in vitro ADME; conditions: male, Cynomolgus monkey (n = 3), 37°C, read-out: Mean t1/2 Value
Method: as §6

[12] = In vitro metabolic half-life in human whole blood; assay type: in vitro ADME; conditions: male, Human (n = 4), 37°C, read-out: Mean t1/2 Value
Method: as §6

[13] = Octanol:water partition coefficient; assay type: physicochemical; conditions: water buffered with 10 mm Tris (pH 7.4)
Method: One mg of each hypnotic was added to 10 ml of water buffered with 10 mm Tris (pH 7.4) and 1 ml of octanol. The mixture was stirred overnight and then centrifuged to fully separate the organic and aqueous phases. The relative hypnotic concentration in each phase (i.e., the partition coefficient) was determined by high-performance liquid chromatography as described for blood.

[14] = target: T1, human GABAA receptor α1, β2 and γ2 (CHO-K1 cells) (Homo sapiens, UniProt P14867+P18507+P47870); design: method as in PMID 22531340; conditions: GABAA receptor electrophysiology; cited from earlier work
T1 construct: expressed in transfected cells; host or cells: CHO-K1 cells, stably transfected

[15] = target: T1, human GABAA receptor α1, β2 and γ2 (CHO-K1 cells); assay: cell-based
Method: Chinese hamster ovary (CHO)-K1 cells transfected stably with human GABAA receptor α1, β2 and γ2 subunit cDNAs were used. The cells were plated onto collagen-coated 35-mm cell culture dishes at low density for 1–7 days before recording. Test solutions were prepared in the extracellular solution on the day the patch-clamp assay was performed. The intracellular solution consisted of 22 mM KCl, 110 mM K-aspartate, 8 mM NaCl, 1 mM MgCl2, 1 mM CaCl2, 10 mM ethylene glycol tetraacetic acid, 5 mM Na2ATP, 10 mM hydroxyethyl piperazineethanesulfonic acid (HEPES) (adjusted to pH 7.2 using KOH), while the extracellular solution contained 145 mM NaCl, 4 mM KCl, 2 mM CaCl2, 2 mM MgCl2, 10 mM HEPES (adjusted to pH 7.4 using NaOH). The assay was performed at room temperature. Cells were maintained at −70 mV and the potentiation effect was assessed by co-application of the test compound with EC20 of muscimol after the cell was pre-incubated with the test compound for 45 s. GABA EC20 measured individually in each cell. The amplitude of the Cl− current in response to muscimol and/or test compound was determined. The response to the co-application of the test compound and muscimol was normalized to the control muscimol response as a percentage of the control. A potentiation effect was indicated by a value >100% of the control response. EC50 values were calculated using the four parameter logistic equation, where E was the amplitude of the muscimol-induced current in the presence of the anesthetic at concentration [A], EMAX was the amplitude of the response in the presence of a maximally effective concentration of the anesthetic, EC50 was the concentration of anesthetic producing a half-maximal enhancement of the muscimol-induced response and nH was the Hill coefficient. [drawing 1]

[16] = mice, IV over 10 s, 95% confidence limits, read-out: HD50 (the source's name)
[17] = mice, IV 2× HD50, mean ± SD (n = 10)

T1 sequence (P14867 28-456): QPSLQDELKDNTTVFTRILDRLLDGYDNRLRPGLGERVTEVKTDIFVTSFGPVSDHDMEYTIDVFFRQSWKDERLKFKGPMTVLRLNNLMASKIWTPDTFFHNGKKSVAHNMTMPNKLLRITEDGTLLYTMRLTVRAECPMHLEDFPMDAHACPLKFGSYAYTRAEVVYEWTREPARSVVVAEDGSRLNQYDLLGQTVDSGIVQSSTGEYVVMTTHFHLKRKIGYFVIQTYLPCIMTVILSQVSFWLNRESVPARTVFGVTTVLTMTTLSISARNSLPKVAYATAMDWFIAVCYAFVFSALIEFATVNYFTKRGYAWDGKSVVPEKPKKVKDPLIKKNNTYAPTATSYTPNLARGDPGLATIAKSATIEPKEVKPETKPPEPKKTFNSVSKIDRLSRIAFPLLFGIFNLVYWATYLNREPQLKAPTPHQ
T1 sequence (P47870 25-512 limits assumed): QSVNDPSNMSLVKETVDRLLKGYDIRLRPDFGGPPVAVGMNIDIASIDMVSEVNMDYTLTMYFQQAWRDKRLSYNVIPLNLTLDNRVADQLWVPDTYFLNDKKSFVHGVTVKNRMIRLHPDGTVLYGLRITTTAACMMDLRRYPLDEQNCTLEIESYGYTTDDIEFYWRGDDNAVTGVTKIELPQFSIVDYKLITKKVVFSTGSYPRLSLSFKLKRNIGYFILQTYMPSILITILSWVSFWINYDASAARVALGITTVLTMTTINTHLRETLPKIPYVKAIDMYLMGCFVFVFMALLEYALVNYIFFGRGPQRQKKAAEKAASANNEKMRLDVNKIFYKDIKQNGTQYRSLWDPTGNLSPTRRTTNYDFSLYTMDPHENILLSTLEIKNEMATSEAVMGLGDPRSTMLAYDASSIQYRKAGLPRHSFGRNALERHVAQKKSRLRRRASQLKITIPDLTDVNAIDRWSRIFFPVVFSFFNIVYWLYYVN
T1 sequence (P18507 40-475): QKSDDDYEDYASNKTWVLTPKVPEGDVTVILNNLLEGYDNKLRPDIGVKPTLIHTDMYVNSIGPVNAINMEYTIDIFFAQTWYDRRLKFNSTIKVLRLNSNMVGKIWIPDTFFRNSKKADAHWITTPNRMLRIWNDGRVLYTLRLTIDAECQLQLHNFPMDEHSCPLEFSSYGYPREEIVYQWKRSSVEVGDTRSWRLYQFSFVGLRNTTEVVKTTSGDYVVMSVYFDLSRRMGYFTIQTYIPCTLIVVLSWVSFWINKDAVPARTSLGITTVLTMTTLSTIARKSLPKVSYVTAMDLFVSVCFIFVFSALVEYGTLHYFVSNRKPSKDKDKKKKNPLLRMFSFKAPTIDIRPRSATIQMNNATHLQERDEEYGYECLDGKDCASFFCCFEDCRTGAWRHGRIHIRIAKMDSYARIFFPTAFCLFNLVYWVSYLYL

Row | Compound | ED50 (mice [1]; [16]) | Time to walk (mice [1]; mice, 2× HD50) | time to behavioral recovery (mice [1]; mice, 2× HD50, rotarod) | Duration of LORR (mice [1]; [17]) | Onset time (mice [1]; mice, IV, mean ± SD (n = 10)) | LD50 (in vivo) | TI (mice [2]) | Duration of LORR (rat [3]; 2× HD50 dose, mean ± SD) | Time to walk (rat [3]; 2× HD50 dose, mean ± SD) | time to behavioral recovery (rat [3]; 2× HD50 dose, mean ± SD) | HD50 (rat [3]) | TI (rat [4]) | Duration of LORR (rabbits [5]) | Time to walk (rabbits [5]) | HD50 (rabbits [5]) | TI (rabbits [6]) | time to walk after infusion (rabbits [7]) | duration of LORR after cessation of infusion (rabbits [7]) | GABAA binding (50 µmol) (Mean ± SD), percentage of inhibition (GABAA receptor) | Octanol:Water Partition (Coefficient ± SD) [13] | further results
1 | CCCOC(=O)Cc1ccc(OCC(=O)N(CC)CC)c(OCC)c1 [AZD3043, reference compound] | 17.6 mg/kg | 36.7 ± 6.4 s | 65.5 ± 14.1 s | 63.8 ± 8.5 s | 5.6 ± 1.2 s | 98.4 mg/kg | 6.0 | 74.2 ± 10.5 s | 38.4 ± 9.6 s | 56.9 ± 12.5 s | 8.2 (7.7∼9.8) mg/kg | 10.1 | 221.6 ± 38.8 s | 89.6 ± 7.6 s | 4.8 (4.6∼5.6) mg/kg | 15.6 | 46.3 ± 11.2 s | 135.6 ± 66.7 s | 83.2±7.4% | 466±54 | half-life at 200 µM [8]: 0.6 ± 0.1 min; half-life at 200 µM [9]: 14.8 ± 3.3 min; half-life at 200 µM [10]: > 60 min; half-life at 200 µM [11]: 56.7 ± 11.9 min; half-life at 200 µM [12]: 28.6 ± 6.2 min; EC50 [14]: 36 µM
2 | CCCOC(=O)Cc1ccc(OCC(=O)N(CC)CC)c(OC)c1 [Propanidid] | 20.9 mg/kg | 56.3 ± 23.5 s | 83.9 ± 17.1 s | 89.6 ± 18.2 s | 6.7 ± 0.5 s | 119 mg/kg | 5.6 | 93.3 ± 16.1 s | 58.7 ± 18.8 s | 79.9 ± 34.6 s | 8.4 (7.8∼10.4) mg/kg | 9.6 | 265.4 ± 44.2 s | 124.5 ± 24.8 s | 5.1 (4.7∼5.7) mg/kg | 14.7 | 70.2 ± 14.9 s | 246.6 ± 65.7 s | 70.2±5.8% | 394±40 | EC50 ([15]; GABAA (α1β2γ2) CHO-K1 cell, patch clamp, read-out: EC50, potentiation of EC20 muscimol evoked chloride currents): 25.2 µM
3 | CC(C)c1cccc(C(C)C)c1O [Propofol] |  |  |  |  |  | 64.4 mg/kg |  |  |  |  | 5.2 (4.5∼5.7) mg/kg | 5.9 | 326.6 ± 48.3 s | 425.3 ± 162.3 s | 3.2 (2.3∼4.2) mg/kg |  | 167.9 ± 60.8 s | 485.6 ± 164.1 s |  |  | ED50 (mice [1]; iv, read-out: HD50): 11.9 mg/kg; Time to walk (mice [1]; mouse, in vivo): 76.5 ± 42.5 s; time to behavioral recovery (mice [1]; mouse, in vivo): 242.7 ± 119.2 s; Duration of LORR (mice [1]; mouse, in vivo, iv): 240.9 ± 93.7 s; Onset time (mice [1]; mouse, in vivo, iv): 8.1 ± 1.6 s; Duration of LORR (rat [3]; in vivo): 349.3 ± 93.3 s; Time to walk (rat [3]; in vivo): 286.5 ± 86.5 s; time to behavioral recovery (rat [3]; in vivo): 335.8 ± 156.9 s; EC50 [15]: 2.4 µM
